Data on 1 compound can be found in patent publication US12577231B2, “Androgen receptor PROTACS” (GlaxoSmithKline Intellectual Property Development Limited, priority 2023, dated 2026).

One assay concerns the target T1, Androgen receptor L702H (Homo sapiens, UniProt P10275, L702H).
T1 construct: expressed in transfected cells; host or cells: A549, transduced, puromycin selected
T1 sequence (P10275 1-920 L702H): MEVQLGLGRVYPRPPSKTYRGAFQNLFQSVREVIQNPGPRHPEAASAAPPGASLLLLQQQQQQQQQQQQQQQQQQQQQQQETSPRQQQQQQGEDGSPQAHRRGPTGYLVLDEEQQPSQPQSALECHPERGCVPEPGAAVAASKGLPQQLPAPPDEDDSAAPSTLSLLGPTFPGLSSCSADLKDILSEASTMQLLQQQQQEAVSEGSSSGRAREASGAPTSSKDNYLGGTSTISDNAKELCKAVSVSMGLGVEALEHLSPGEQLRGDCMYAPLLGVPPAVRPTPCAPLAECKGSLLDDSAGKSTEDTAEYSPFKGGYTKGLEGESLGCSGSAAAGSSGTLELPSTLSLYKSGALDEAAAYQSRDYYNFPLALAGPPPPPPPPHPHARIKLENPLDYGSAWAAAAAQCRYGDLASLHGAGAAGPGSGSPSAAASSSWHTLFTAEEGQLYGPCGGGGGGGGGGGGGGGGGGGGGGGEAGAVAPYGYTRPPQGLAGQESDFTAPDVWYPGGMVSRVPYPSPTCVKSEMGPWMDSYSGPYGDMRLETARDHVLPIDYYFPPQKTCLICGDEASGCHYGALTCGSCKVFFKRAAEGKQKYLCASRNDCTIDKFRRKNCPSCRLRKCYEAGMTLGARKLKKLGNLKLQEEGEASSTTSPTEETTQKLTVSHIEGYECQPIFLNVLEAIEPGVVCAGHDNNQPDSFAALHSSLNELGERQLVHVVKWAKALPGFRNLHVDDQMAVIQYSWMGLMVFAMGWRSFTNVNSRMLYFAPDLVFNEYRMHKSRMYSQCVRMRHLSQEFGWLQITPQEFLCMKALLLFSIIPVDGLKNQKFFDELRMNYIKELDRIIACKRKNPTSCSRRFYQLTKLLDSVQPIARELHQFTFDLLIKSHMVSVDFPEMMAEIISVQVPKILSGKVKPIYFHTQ
As to the kind of experiment: Degradation of overexpressed Androgen Receptor in A549 cells (HiBiT), L702H. Conditions: A549 cells overexpressing AR L702H, cycloheximide, 24 hours. In kind it is cell-based. The protocol: (§1) A549 cells were transduced to express wild type androgen receptor and Androgen receptor containing the following mutations (L702H, H875Y W742C W742L F877L, T878A and T878A/H875Y) with HiBiT tags. Transduced cells following puromycin selection were maintained in a humidified incubator (at 37° C. and 5% CO2 in the DMEM medium supplemented with 1% (v/v) Pen/Strep, 1% (v/v) Glutamax and 10% (v/v) FBS. A549 cells expressing each AR construct were detached from plate and counted. Cell suspensions at density 0.2 million per mL were prepared. Cell suspension was supplemented with 100 μg/mL of cycloheximide to block protein synthesis. Cells were preincubated with cycloheximide for 1 hr before seeding. Cells were seeded onto 384-well plate at density of 5,000 in 25 μL per well. A two fold serial dilution of test compounds, starting from 1 μM (row A) in 2-fold serial dilution series across the column using Tecan D300e dispenser. […]
(§2) Nano-Glo HiBiT Lytic reagent was prepared by adding LgBiT protein and Nano-Glo® substrate to lytic buffer pre-equilibrated at room temperature following manufacturer protocol (https://www.promega.co.uk/resources/protocols/technical-manuals/101/nanoglo-luciferase-assay-system-protocol). […] The plates were then centrifuged (100×G, 1 min) and incubated on shaker for 10 mins before taking readings on Pherastar Luminescence microplate reader. […]

A further assay has as its target T2, Androgen receptor W742C (Homo sapiens, UniProt P10275, W742C).
T2 construct: expressed in transfected cells; host or cells: A549, transduced, puromycin selected
T2 sequence (P10275 1-920 W742C): T1 sequence (P10275 1-920 L702H) with H702L, W742C
As to the kind of experiment: Degradation of overexpressed Androgen Receptor in A549 cells (HiBiT), W742C. In kind it is cell-based. Particulars: A549 cells overexpressing AR W742C, cycloheximide, 24 hours. The procedure: as §1, §2
On the technique in general: The HiBiT peptide binds its large partner to form an active luciferase.

Structures are written as SMILES. Where a chain is given by its changes, count along the chain named.

Take `COc1cc(O[C@H]2C(C)(C)[C@H](NC(=O)c3ccc(N4CCC(CN5CCC(n6ncc7c(N8CCC(=O)NC8=O)nccc76)CC5)CC4)c(F)c3)C2(C)C)ccc1C#N` [Example 20, N-((1r,3r)-3-(4-Cyano-3-methoxyphenoxy)-2,2,4,4-tetramethylcyclobutyl)-4-(4-((4-(4-(2,4-dioxotetrahydropyrimidin-1(2H)-yl)-1H-pyrazolo[4,3-c]pyridin-1-yl)piperidin-1-yl)methyl)piperidin-1-yl)-3-fluorobenzamide]: the “Summary pXC50” value came to 9.00 at Androgen receptor L702H and 8.57 at Androgen receptor W742C.
